Legend:
Assay type in all cases: in vivo
[1] = tested on: giant foxtail (Setaria faberii); experiment: Test A preemergence; conditions: Setaria faberi, pre-emergence, 240 h, Preemergence; for pest or weed control at 31 g/ha: 31 g ai/ha, 0 to 100 scale where 0 is no effect and 100 is complete control, read-out: Foxtail, Giant plant response rating; for pest or weed control at 125 g/ha: 125 g ai/ha, 0 to 100 scale (0 no effect, 100 complete control), read-out: Plant response rating, Foxtail, Giant
In short: (§1)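 Seeded soil received test chemicals as a preemergence directed spray, and seedlings at one to two leaves, 2–10 cm tall, received them postemergence, in a non-phytotoxic, surfactant-containing solvent mixture. Pots were held in a greenhouse for approximately 10 d, then rated for injury from 0, no effect, to 100, complete control.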

Kochia (Kochia scoparia) [2] = experiment: Test A preemergence; conditions: Bassia scoparia, pre-emergence, 240 h, Preemergence; for pest or weed control at 31 g/ha: 31 g ai/ha, 0 to 100 scale where 0 is no effect and 100 is complete control, read-out: Kochia plant response rating; for pest or weed control at 125 g/ha: 125 g ai/ha, 0 to 100 scale (0 no effect, 100 complete control), read-out: Plant response rating, Kochia
In short: as §1

[3] = tested on: barnyardgrass (Echinochloa crus-galli); experiment: Test A preemergence; conditions: Echinochloa crus-galli, pre-emergence, 240 h, Preemergence; for pest or weed control at 31 g/ha: 31 g ai/ha, 0 to 100 scale where 0 is no effect and 100 is complete control, read-out: Barnyardgrass plant response rating; for pest or weed control at 125 g/ha: 125 g ai/ha, 0 to 100 scale (0 no effect, 100 complete control), read-out: Plant response rating, Barnyardgrass
In short: as §1

[4] = tested on: ryegrass, Italian (Italian ryegrass, Lolium multiflorum); experiment: Test A preemergence; conditions: Lolium multiflorum, pre-emergence, 240 h, Preemergence; for pest or weed control at 31 g/ha: 31 g ai/ha, 0 to 100 scale where 0 is no effect and 100 is complete control, read-out: Ryegrass, Italian plant response rating; for pest or weed control at 125 g/ha: 125 g ai/ha, 0 to 100 scale (0 no effect, 100 complete control), read-out: Plant response rating, Ryegrass, Italian
In short: as §1

[5] = tested on: ragweed (common ragweed, Ambrosia elatior); experiment: Test A preemergence; conditions: Ambrosia artemisiifolia, pre-emergence, 240 h, Preemergence; for pest or weed control at 31 g/ha: 31 g ai/ha, 0 to 100 scale where 0 is no effect and 100 is complete control, read-out: Ragweed plant response rating; for pest or weed control at 125 g/ha: 125 g ai/ha, 0 to 100 scale (0 no effect, 100 complete control), read-out: Plant response rating, Ragweed
In short: as §1

[6] = tested on: pigweed (Amaranthus retroflexus); experiment: Test A preemergence; conditions: Amaranthus retroflexus, pre-emergence, 240 h, Preemergence; for pest or weed control at 31 g/ha: 31 g ai/ha, 0 to 100 scale where 0 is no effect and 100 is complete control, read-out: Pigweed plant response rating; for pest or weed control at 125 g/ha: 125 g ai/ha, 0 to 100 scale (0 no effect, 100 complete control), read-out: Plant response rating, Pigweed
rice (Oryra sativa) = experiment: Test B flooded paddy test; conditions: Oryza sativa, 360 h, Flood, 250 g ai/ha; visually evaluated after 13 to 15 d; read-out: Plant response rating, Rice (0 to 100 scale where 0 is no effect and 100 is complete control)
In short: (§2)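 2-leaf plants; pots flooded 3 cm over soil; cpd added to paddy water; depth held; greenhouse 13–15 d; visual rating vs controls, 0 = no effect, 100 = complete control.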

[7] = tested on: sedge, umbrella (small-flower umbrella sedge, Cyperus difformis); experiment: Test B flooded paddy test; conditions: Cyperus difformis, 360 h, Flood, 250 g ai/ha; visually evaluated after 13 to 15 d; read-out: Plant response rating, Sedge, Umbrella (0 to 100 scale where 0 is no effect and 100 is complete control)
In short: as §2

[8] = tested on: barnyardgrass (Echinochloa crus-galli); experiment: Test B flooded paddy test; conditions: Echinochloa crus-galli, 360 h, Flood, 250 g ai/ha; visually evaluated after 13 to 15 d; read-out: Plant response rating, Barnyardgrass (0 to 100 scale where 0 is no effect and 100 is complete control)
In short: as §2

[9] = tested on: ducksalad (Heteranthera limosa); experiment: Test B flooded paddy test; conditions: Heteranthera limosa, 360 h, Flood, 250 g ai/ha; visually evaluated after 13 to 15 d; read-out: Plant response rating, Ducksalad (0 to 100 scale where 0 is no effect and 100 is complete control)
In short: as §2

[10] = tested on: giant foxtail (Setaria faberii); experiment: Test A postemergence; conditions: Setaria faberi, post-emergence, 240 h, Postemergence, read-out: Foxtail, Giant plant response rating (0 to 100 scale); for pest or weed control at 125 g/ha: 125 g ai/ha, visual rating about 10 d after treatment; for pest or weed control at 31 g/ha: 31 g ai/ha, 0 is no effect, 100 is complete control
In short: as §1

[11] = tested on: Galium (catchweed bedstraw, Galium aparine); experiment: Test A postemergence; conditions: Galium, post-emergence, 240 h, Postemergence, read-out: Galium plant response rating (0 to 100 scale); for pest or weed control at 125 g/ha: 125 g ai/ha, visual rating about 10 d after treatment; for pest or weed control at 31 g/ha: 31 g ai/ha, 0 is no effect, 100 is complete control
In short: as §1

Kochia (Kochia scoparia) [12] = experiment: Test A postemergence; conditions: Bassia scoparia, post-emergence, 240 h, Postemergence, read-out: Kochia plant response rating (0 to 100 scale); for pest or weed control at 125 g/ha: 125 g ai/ha, visual rating about 10 d after treatment; for pest or weed control at 31 g/ha: 31 g ai/ha, 0 is no effect, 100 is complete control
In short: as §1

[13] = tested on: wheat (Triticum aestivum); experiment: Test A postemergence; conditions: Triticum aestivum, post-emergence, 240 h, Postemergence, read-out: Wheat plant response rating (0 to 100 scale); for plant injury at 125 g/ha: 125 g ai/ha, visual rating about 10 d after treatment; for plant injury at 31 g/ha: 31 g ai/ha, 0 is no effect, 100 is complete control
In short: as §1

[14] = tested on: barnyardgrass (Echinochloa crus-galli); experiment: Test A postemergence; conditions: Echinochloa crus-galli, post-emergence, 240 h, Postemergence; for pest or weed control at 125 g/ha: 125 g ai/ha, visual rating about 10 d after treatment, read-out: Barnyardgrass plant response rating (0 to 100 scale, 0 no effect, 100 complete control); for pest or weed control at 31 g/ha: 31 g ai/ha, 0 is no effect, 100 is complete control, read-out: Barnyardgrass plant response rating (0 to 100 scale)
In short: as §1

[15] = tested on: ryegrass, Italian (Italian ryegrass, Lolium multiflorum); experiment: Test A postemergence; conditions: Lolium multiflorum, post-emergence, 240 h, Postemergence, read-out: Ryegrass, Italian plant response rating (0 to 100 scale); for pest or weed control at 125 g/ha: 125 g ai/ha, visual rating about 10 d after treatment; for pest or weed control at 31 g/ha: 31 g ai/ha, 0 is no effect, 100 is complete control
In short: as §1

[16] = tested on: ragweed (common ragweed, Ambrosia elatior); experiment: Test A postemergence; conditions: Ambrosia artemisiifolia, post-emergence, 240 h, Postemergence, read-out: Ragweed plant response rating (0 to 100 scale); for pest or weed control at 125 g/ha: 125 g ai/ha, visual rating about 10 d after treatment; for pest or weed control at 31 g/ha: 31 g ai/ha, 0 is no effect, 100 is complete control
In short: as §1

corn (Zea mays) = experiment: Test A postemergence; conditions: Zea mays, post-emergence, 240 h, Postemergence, read-out: Corn plant response rating (0 to 100 scale); for plant injury at 125 g/ha: 125 g ai/ha, visual rating about 10 d after treatment; for plant injury at 31 g/ha: 31 g ai/ha, 0 is no effect, 100 is complete control
In short: as §1

[17] = tested on: pigweed (Amaranthus retroflexus); experiment: Test A postemergence; conditions: Amaranthus retroflexus, post-emergence, 240 h, Postemergence, read-out: Pigweed plant response rating (0 to 100 scale); for pest or weed control at 125 g/ha: 125 g ai/ha, visual rating about 10 d after treatment; for pest or weed control at 31 g/ha: 31 g ai/ha, 0 is no effect, 100 is complete control
In short: as §1

[18] = tested on: blackgrass (Alopecurus myosuroides); experiment: Test A postemergence; conditions: Alopecurus myosuroides, post-emergence, 240 h, Postemergence, read-out: Blackgrass plant response rating (0 to 100 scale); for pest or weed control at 125 g/ha: 125 g ai/ha, visual rating about 10 d after treatment; for pest or weed control at 31 g/ha: 31 g ai/ha, 0 is no effect, 100 is complete control
In short: as §1

Structure (SMILES)	pest or weed control at 31 g/ha [1]	pest or weed control at 125 g/ha [1]	pest or weed control at 31 g/ha (Kochia (Kochia scoparia) [2])	pest or weed control at 125 g/ha (Kochia (Kochia scoparia) [2])	pest or weed control at 31 g/ha [3]	pest or weed control at 125 g/ha [3]	pest or weed control at 31 g/ha [4]	pest or weed control at 125 g/ha [4]	pest or weed control at 31 g/ha [5]	pest or weed control at 125 g/ha [5]	pest or weed control at 31 g/ha [6]	pest or weed control at 125 g/ha [6]	pest or weed control at 250 g/ha (rice (Oryra sativa))	pest or weed control at 250 g/ha [7]	pest or weed control at 250 g/ha [8]	pest or weed control at 250 g/ha [9]	pest or weed control at 125 g/ha [10]	pest or weed control at 31 g/ha [10]	pest or weed control at 125 g/ha [11]	pest or weed control at 31 g/ha [11]	other results
CC(C)Oc1ccc([C@H]2CN(C)C(=O)[C@@H]2C(=O)Nc2ccccc2F)cc1F [Compound 1333]	90%	90%	0%	30%	40%	70%	0%	0%	0%	0%	0%	0%	20%	70%	45%	80%	60%	0%	0%	0%	pest or weed control at 125 g/ha (Kochia (Kochia scoparia) [12]): 0%; pest or weed control at 31 g/ha (Kochia (Kochia scoparia) [12]): 0%; plant injury at 125 g/ha [13]: 0%; plant injury at 31 g/ha [13]: 0%; pest or weed control at 125 g/ha [14]: 70%; pest or weed control at 31 g/ha [14]: 0%; pest or weed control at 125 g/ha [15]: 0%; pest or weed control at 31 g/ha [15]: 0%; pest or weed control at 125 g/ha [16]: 0%; pest or weed control at 31 g/ha [16]: 0%; plant injury at 125 g/ha (corn (Zea mays)): 0%; plant injury at 31 g/ha (corn (Zea mays)): 0%; pest or weed control at 125 g/ha [17]: 10%; pest or weed control at 31 g/ha [17]: 0%; pest or weed control at 125 g/ha [18]: 0%; pest or weed control at 31 g/ha [18]: 0%
COc1c([C@H]2CN(C)C(=O)[C@@H]2C(=O)Nc2cccc(F)c2F)cccc1C(F)(F)F [Compound 1339]	80%	90%	0%	50%	90%	90%	0%	20%	0%	0%	0%	0%	60%	0%	95%	100%	80%	70%	50%	30%	pest or weed control at 125 g/ha (Kochia (Kochia scoparia) [12]): 20%; pest or weed control at 31 g/ha (Kochia (Kochia scoparia) [12]): 0%; plant injury at 125 g/ha [13]: 0%; plant injury at 31 g/ha [13]: 0%; pest or weed control at 125 g/ha [14]: 90%; pest or weed control at 31 g/ha [14]: 70%; pest or weed control at 125 g/ha [15]: 0%; pest or weed control at 31 g/ha [15]: 0%; pest or weed control at 125 g/ha [16]: 20%; pest or weed control at 31 g/ha [16]: 0%; plant injury at 125 g/ha (corn (Zea mays)): 0%; plant injury at 31 g/ha (corn (Zea mays)): 0%; pest or weed control at 125 g/ha [17]: 30%; pest or weed control at 31 g/ha [17]: 20%; pest or weed control at 125 g/ha [18]: 0%; pest or weed control at 31 g/ha [18]: 0%
